Where a name gives a salt, the structure may show the parent alone.
Experiments:
[1] = test system: rabbit cornea (intraocular enzymes); type: in vivo; conditions: topical, 2% (w/v) aqueous solution
Description: The tissue was homogenized in an alkaline buffer (pH 10.0) to give 10% (w/v) homogenate, and extracted twice with equal volumes of methylene chloride/diethyl ether mixture (1:4, v/v) by shaking for 15 minutes. The organic layer was separated, then re-extractedwith an equal volume of aqueous 0.1M hydrochloric acid solution. The aqueous phase was made alkaline (pH 10.0) and extracted with methylene chloride/diethyl ether, the organic layer was transferred to a deactivated glass vial, and the solvent was evaporated at reduced pressure under nitrogen stream. The residue was dissolved in 0.01M hydrochloric acid solution and analyzed by high-performance liquid chromatography (HPLC). A Supelcosil LC-8-DB analytical column (7.5 cm×4.6 mm i.d., 3 μm particle size) and mobile phase (1.5 mL/min flow rate) consisting of 30% acetonitrile in an aqueous buffer solution of 0.02M monobasic potassium phosphate (adjusted to pH 3.0 with phosphoric acid) and 0.01 (v/v) triethylamine. UV detection at 280 nm was applied. […] The same experiment was carried out by administering 1-(isopropylamino)-3-(2-allylphenoxy)-2-propanone oxime hydrochloride salt in 2% (w/v) aqueous solution. […]

[2] = test system: resting heart rate of rats; assay: Effect on resting heart rate in rats; type: in vivo, rat (male Sprague-Dawley); conditions: 6 mg/kg i.v. (Example 6)
Description: (§1) Groups of seven male Sprague-Dawley rats weighing 150-250 g were used. Each animal was anesthetized with sodium pentobarbital (50 mg/kg) and the jugular vein was cannulated with PE50 tubing. This cannula was subcutaneously threaded around the neck and exteriorized dorsally. The cannula was filled with heparin solution ([…]) and sealed with a solid 22-gauge stylet. Animals were housed in individual stainless steel cages and at least 24 hours were allowed for recovery from the surgery. Food and water were provided ad libitum. On the day of the experiment, the heart rate of each rat was monitored with a plethsmograph and the data recorded on a Physioscribe II recorder. One hour was allowed as an equilibration period before any drugs were administered. Drugs were dissolved in normal saline as 0.3% solution and were administered intravenously at a dose of 6 mg/kg. The resting heart rate was then recorded after 1, 3, 5, 10 and 15 minutes following i.v. injection. […] A control group of seven animals was intravenously administered saline solution and was treated exactly in the same manner as the drug-treated groups. The significance of the difference between the effect of saline solution and the drugs under investigation on the resting heart rate and on isoprenaline tachycardia was analyzed using the student's "t" test. Values are given as mean ±S.E. of the mean. […] (.) carteolol HCl, 1c; .circle. propranolone ketoxime HCl, 6a; (.gradient.) timolone ketoxime oxalate, 6b; (Δ) N-isopropyl timolone ketoxime HCl, 6d; carteolone oxime HCl, 6c; and (---) saline solution. […] Drugs were administered to groups of 5 rats using a stomach tube and the heart rate was recorded for 1 hour. […] A control group of 5 rats was treated exactly in the same manner after the oral administration of the appropriate volume of saline solution.

[3] = test system: Intraocular Pressure (IOP) of Rabbits; assay: Effect on the Intraocular Pressure (IOP) of Rabbits; type: in vivo, rabbit (male New Zealand albino); conditions: for ocular hypotensive activity (in words): topical, dose levels used
Description: The animals were kept in individual cages with free access to food and water. Intraocular pressure was measured using a Digilab model 30R pneumatonometer. The pneumatonometer readings were checked at least twice a day using the Digilab calibration verifier. All measurements were obtained from unrestrained, unanesthetized rabbits. One drop of 0.5% propacaine (Ophthetic-Allergen Pharmaceuticals, Inc.) diluted 1:2 with saline was instilled in each eye immediately prior to IOP measurement. Drugs were administered as 1 or 2.5% solution in buffer pH 7.4 or in saline in both eyes of a group of at least four rabbits. Another group of at least three rabbits served as control and was administered the carrier only. […] Values are given as means ± standard error (S.E.) of the mean. The significance of the change was determined using the student's t-test.

[4] = test system: isoprenaline-induced tachycardia; assay: Effect on isoprenaline-induced tachycardia in rats (β-adrenergic antagonist activity); type: in vivo, rat (male Sprague-Dawley); conditions: for β-antagonist activity: dose levels used; for β-adrenergic antagonist activity against isoprenaline-tachycardia: rats, 6 mg/kg i.v., isoprenaline 50 μg/kg s.c., FIG. 1
Description: as §1

[5] = propranolol enantiomers; cited from earlier work
Hygroscopicity = type: physicochemical; conditions: crystals
Description: In a 50 mL round-bottomed flask was placed a solution of oxalic acid (0.20 g, 2.22 mmole) in ether (10 mL). To this solution was added a solution of 5b (0.43 g, 1.3 mmole) in ether. The mixture was stirred at room temperature for 1 hour. The white non-hygroscopic crystals were filtered and dried in vacuo. Yield 0.53 g (97%), m.p. 165°-166° (dec.). NMR (CDCl3) δ 5.3 (s, 2H), 3.9-3.7 (m, 4H), 3.6-3.4 (m, 6H), 1.1 (s, 9H). Anal. (C18 H25 O7 N5), C,H,N.

[6] = test system: ocular tissues of rabbits; assay: In vivo distribution-metabolism in ocular tissues of rabbits; conditions: rabbit, in vivo
Description: Adult male New Zealand albino rabbits weighing 2.5-3.5 kg were used. Standard doses of 100 μl of 1% solution of the drugs in saline solution were administered topically to both eyes of each rabbit. After appropriate time intervals (30, 60 and 120 minutes), the animals were sacrificed. Aqueous humor was obtained by making a single puncture at the limbus using a 25 g×5/8" needle attached to 1 cm^3 syringe. Then the cornea and the iris-ciliary body were isolated. The tissues were pooled and homogenized using a Tekmar SDT tissuemizer in ice cold perchloric acid (0.05M) which contained 0.05% sodium metabisulfite as antioxidant. Samples were then rehomogenized in CH3 OH to prepare 10% homogenates, transferred to micro-filters and centrifuged for 20 minutes at 10000 r/minute to precipitate proteins. Aqueous humor was analyzed as such without any further dilution. Aliquots of 5-20 μl of the 10% tissue homogenate samples were analyzed by HPLC.

[7] = Table 3, 1% solution, time zero

C=CCc1ccccc1OCC(CNC(C)C)=NO.Cl [1-(isopropylamino)-3-(2-allylphenoxy)-2-propanone oxime hydrochloride]
metabolites identified in cornea [1]: showed the presence of the two oxime isomers, the corresponding ketone 1-(isopropylamino)-3-(2-allylphenoxy)-2-propanone, and the β-adrenergic blocker 1-(isopropylamino)-3-(2-allylphenoxy)-2-propanol(alprenolol)

CC(C)(C)NCC(O)COc1cccc2c1CCC(=O)N2 (centres unmarked) [Compound 1c, reference compound]
activity on resting heart rate (negative chronotropic action) [2]: lowest activity on the heart rate of rats

CC(C)(C)NCC(COc1cccc2c1CCC(=O)N2)=NO [Compound 6c, 5-[3-(tert-Butylaminno)-2-(hydroxyimino)propoxy]-3,4-dihydrocarbostyril Hydrochloride]
ocular hypotensive activity (in words) ([3]; rabbits): low activity at the dose levels used
activity on resting heart rate (negative chronotropic action) [2]: less active
β-antagonist activity [4]: some β-antagonist activity
β-adrenergic antagonist activity against isoprenaline-tachycardia [4]: least active

CC(C)NCC(COc1nsnc1N1CCOCC1)=NO.Cl [Compound 6d, 1-(Isopropylamino)-3-[(4-morpholino-1,2,5-thiadiazol-3-yl)oxy]-2-propanone oxime Hydrochloride]
activity ([3]; selected dosage level): inactive at the selected dosage level
ocular hypotensive activity (in words) ([3]; rabbits): low activity at the dose levels used
activity on resting heart rate (negative chronotropic action) [2]: less active
β-antagonist activity [4]: some β-antagonist activity
β-adrenergic antagonist activity against isoprenaline-tachycardia [4]: least active

CC(C)NCC(O)COc1cccc2ccccc12 (centres unmarked) [Propranolol HCl 1a, reference compound]
% change after treatment (IOP) ([3]; 1% solution, 30 min.): -9.10%
IOP, treated ([3]; 1% solution, 30 min.): 28.0 ± 0.56 mm/Hg
% change after treatment (IOP) ([3]; 1% solution, 60 min.): -10.39%
IOP, treated ([3]; 1% solution, 60 min.): 27.6 ± 0.62 mm/Hg
% change after treatment (IOP) ([3]; 1% solution, 2 hrs.): -5.52%
IOP, treated ([3]; 1% solution, 2 hrs.): 29.1 ± 0.38 mm/Hg
% change after treatment (IOP) ([3]; 1% solution, 3 hrs.): -11.04%
IOP, treated ([3]; 1% solution, 3 hrs.): 27.4 ± 0.54 mm/Hg
% change after treatment (IOP) ([3]; 1% solution, 4 hrs.): -8.44%
IOP, treated ([3]; 1% solution, 4 hrs.): 28.2 ± 0.48 mm/Hg
% change after treatment (IOP) ([3]; 1% solution, 6 hrs.): -5.84%
IOP, treated ([3]; 1% solution, 6 hrs.): 29.0 ± 0.45 mm/Hg
% change after treatment (IOP) ([3]; 1% solution, 8 hrs.): -1.95%
IOP, treated ([3]; 1% solution, 8 hrs.): 30.2 ± 0.43 mm/Hg
% change after treatment (IOP) ([3]; 1% solution, time zero): 0.00%
IOP, treated ([3]; 1% solution, time zero): 30.8 ± 0.40 mm/Hg
% change after treatment (IOP) ([3]; 2.5% solution, 30 min.): +8.66%
IOP, treated ([3]; 2.5% solution, 30 min.): 27.6 ± 0.56 mm/Hg
% change after treatment (IOP) ([3]; 2.5% solution, 60 min.): +9.84%
IOP, treated ([3]; 2.5% solution, 60 min.): 27.9 ± 0.60 mm/Hg
% change after treatment (IOP) ([3]; 2.5% solution, 2 hrs.): +1.18%
IOP, treated ([3]; 2.5% solution, 2 hrs.): 25.7 ± 0.55 mm/Hg
% change after treatment (IOP) ([3]; 2.5% solution, 3 hrs.): +1.18%
IOP, treated ([3]; 2.5% solution, 3 hrs.): 25.7 ± 0.39 mm/Hg
% change after treatment (IOP) ([3]; 2.5% solution, 4 hrs.): +0.79%
IOP, treated ([3]; 2.5% solution, 4 hrs.): 25.6 ± 0.46 mm/Hg
% change after treatment (IOP) ([3]; 2.5% solution, 6 hrs.): 0.00%
IOP, treated ([3]; 2.5% solution, 6 hrs.): 25.4 ± 0.54 mm/Hg
% change after treatment (IOP) ([3]; 2.5% solution, 8 hrs.): -0.79%
IOP, treated ([3]; 2.5% solution, 8 hrs.): 25.2 ± 0.68 mm/Hg
% change after treatment (IOP) ([3]; 2.5% solution, time zero): 0.00%
IOP, treated ([3]; 2.5% solution, time zero): 25.4 ± 0.56 mm/Hg

CC(C)NC[C@@H](O)COc1cccc2ccccc12 [R-(+)-enantiomer]
metabolism relative to S-form [5]: metabolized faster than the S-form

CC(C)NC[C@H](O)COc1cccc2ccccc12 [S-(-)-isomer]
potency relative to R-(+)-enantiomer [5]: about 100 times

CC(C)(C)NCC(O)COc1nsnc1N1CCOCC1 (centres unmarked) [Timolol maleate 1b, reference compound]
% change after treatment (IOP) ([3]; Table 3, 1% solution, 30 min.): -10.93%
IOP, drug-treated ([3]; Table 3, 1% solution, 30 min.): 26.00 ± 1.23 mm/Hg
% change after treatment (IOP) ([3]; Table 3, 1% solution, 1 hr.): 6.65%
IOP, drug-treated ([3]; Table 3, 1% solution, 1 hr.): 27.25 ± 1.12 mm/Hg
% change after treatment (IOP) ([3]; Table 3, 1% solution, 2 hr.): 6.78%
IOP, drug-treated ([3]; Table 3, 1% solution, 2 hr.): 27.21 ± 0.58 mm/Hg
% change after treatment (IOP) ([3]; Table 3, 1% solution, 3 hr.): 14.35%
IOP, drug-treated ([3]; Table 3, 1% solution, 3 hr.): 25.00 ± 0.87 mm/Hg
% change after treatment (IOP) ([3]; Table 3, 1% solution, 4 hr.): 14.77%
IOP, drug-treated ([3]; Table 3, 1% solution, 4 hr.): 24.88 ± 1.00 mm/Hg
% change after treatment (IOP) ([3]; Table 3, 1% solution, 5 hr.): 16.92%
IOP, drug-treated ([3]; Table 3, 1% solution, 5 hr.): 24.25 ± 1.18 mm/Hg
% change after treatment (IOP) ([3]; Table 3, 1% solution, 6 hr.): 12.37%
IOP, drug-treated ([3]; Table 3, 1% solution, 6 hr.): 25.58 ± 0.85 mm/Hg
% change after treatment (IOP) ([3]; Table 3, 1% solution, 8 hr.): 9.80%
IOP, drug-treated ([3]; Table 3, 1% solution, 8 hr.): 26.33 ± 0.40 mm/Hg
% change after treatment (IOP) [3, 7]: 0.00%
IOP, drug-treated [3, 7]: 29.19 ± 0.78 mm/Hg

CC(C)(C)NCC(COc1nsnc1N1CCOCC1)=NO.O=C(O)C(=O)O [Timolone oxime oxalate 6b, 1-(tert-Butylamino)-3-[(4-morpholino-1,2,5-thiadiazol-3-yl)oxy]-2-propanoneoxime oxalate]
% change after treatment (IOP) ([3]; Table 3, 1% solution, 30 min.): -2.43%
IOP, drug-treated ([3]; Table 3, 1% solution, 30 min.): 27.75 ± 0.68 mm/Hg
% change after treatment (IOP) ([3]; Table 3, 1% solution, 1 hr.): -14.56%
IOP, drug-treated ([3]; Table 3, 1% solution, 1 hr.): 24.30 ± 0.63 mm/Hg
% change after treatment (IOP) ([3]; Table 3, 1% solution, 2 hr.): -15.61%
IOP, drug-treated ([3]; Table 3, 1% solution, 2 hr.): 24.00 ± 0.44 mm/Hg
% change after treatment (IOP) ([3]; Table 3, 1% solution, 3 hr.): -11.64%
IOP, drug-treated ([3]; Table 3, 1% solution, 3 hr.): 25.13 ± 0.96 mm/Hg
IOP, drug-treated ([3]; Table 3, 1% solution, 4 hr.): 26.93 ± 0.48 mm/Hg
% change after treatment (IOP) ([3]; Table 3, 1% solution, 5 hr.): -5.49%
IOP, drug-treated ([3]; Table 3, 1% solution, 5 hr.): 26.88 ± 0.52 mm/Hg
% change after treatment (IOP) ([3]; Table 3, 1% solution, 6 hr.): +1.20%
IOP, drug-treated ([3]; Table 3, 1% solution, 6 hr.): 28.78 ± 0.91 mm/Hg
% change after treatment (IOP) ([3]; Table 3, 1% solution, 8 hr.): -7.42%
IOP, drug-treated ([3]; Table 3, 1% solution, 8 hr.): 26.33 ± 0.40 mm/Hg
% change after treatment (IOP) [3, 7]: 0.00%
IOP, drug-treated [3, 7]: 28.44 ± 0.63 mm/Hg
ocular hypotensive activity compared with parent β-blocker ([3]; same dose levels, rabbits): faster in its onset and shorter in its duration than timolol 1b itself
ocular hypotensive activity (in words) ([3]; rabbits): significant ocular hypotensive activity
activity on resting heart rate (negative chronotropic action) [2]: highest activity
hygroscopicity (Hygroscopicity): non-hygroscopic
β-adrenergic antagonist activity against isoprenaline-tachycardia [4]: most effective

CC(C)(C)NCC(O)COc1cccc2c1CCC(=O)N2 (centres unmarked) [carteolol]
detection of parent β-adrenergic antagonist in eye compartments [6]: could not be found in any of the eye compartments

From patent US5017618A, “Labile derivatives of ketone analogs of 3-substituted-1-alkylamino-2-propanols and their use as beta-adrenergic blockers” (priority 1989, dated 1991)
